In patent US20240002437A1, “COMPOSITIONS AND METHODS OF TREATING INFLAMMATORY LUNG DISEASES” (priority 2020, published 2024):
“Also recorded” adds a separate entry of the source.

Assays:
TRPV4 [1] = assay: Cytosolic Ca2+ concentration ([Ca2+]cyt), fura-2/AM loaded PAEC; assay type: cell-based, ovine; conditions: 4αPDD 10 μM
Protocol: (§1) Primary cultures of ovine pulmonary arterial endothelial cells (PAEC) were isolated as described previously (L. K. Kelly, Am J Physiol Lung Cell Mol Physiol, 286(5), L984-91 (2004)). Briefly, cells were maintained in Dulbecco's modified Eagle medium (DMEM) supplemented with 10% fetal calf serum (Hyclone, Logan, UT), antibiotics/antimycotic (500 IU Penicillin, 500 μg/ml Streptomycin, 1.25 μg/ml Amphotericin B; MediaTech, Herndon, VA) at 37° C. in a humidified atmosphere with 5% CO2 and 95% air. Cells were used for experiments between passages 9-14, seeded at ˜50% confluence, and utilized when fully confluent.
PAEC were grown at 50-60% confluence on 25-mm-diameter circular glass coverslips. […] The fluorescence emission (at 520 nm) was captured with an EM-CC camera (Evolve; Photometric, Tucson, AZ) and analyzed using NIS Elements 3.2 software (Nikon). [Ca^2+]cyt is expressed as 340/380 fluorescence ratio within an area of interest in the peripheral area of a cell recorded every 2 s. […] [Ca^2+]cyt was calculated using the following equation: [Ca^2+]cyt=Kd×(Sf2/Sf1)×(R−Rmin)/(Rmax−R). Kd (225 nM) is the dissociation constant of the Ca2+-fura-2 complex; and Sf2 and Sf1 and Rmin and Rmax were calculated using a standard protocol (G. Grynkiewicz, J Biol Chem, 260(6), 3440-50 (1985)). […]

PAEC = assay: Mitochondrial bioenergetics (XF24 Analyzer, OCR) in PAEC; assay type: cell-based, ovine; conditions: 4αPDD
Protocol: as §1
The XF24 Analyzer (Seahorse Biosciences) and XF CELL MITO STRESS™ Test Kit (#101706-100; Seahorse Biosciences) were used for the mitochondrial bioenergetic analyses. The optimum number of cells/well was determined to be 75,000/0.32 cm^2. At the end of each study, the XF24 culture microplates were incubated in a CO2-free XF prep station at 37° C. for 45 min to allow temperature and pH calibration. Subsequently, each well was sequentially injected Oligomycin (1 μM final concentration), carbonyl cyanide 4-(trifluoromethoxy) phenylhydrazone (FCCP, 1 μM final concentration), and Rotenone+antimycin A (1 μM final concentration of each) and measured the oxygen consumption rate (OCR). These agents were used to determine basal mitochondrial respiration, reserve respiratory capacity and maximal respiratory capacity measurements in pmols/min of oxygen consumed.

PKC = PKC activity, dot-blot of PKC-phosphorylated proteins; assay type: cell-based, ovine; conditions: PAEC; 4αPDD 10 μM, 2, 4 and 6 hours
Protocol: as §1
Activation of PKC in control and 4αPDD-treated EC was evaluated using dot-blot method and antibodies specific to PKC-phosphorylated proteins. The cell lysates were transferred on nitrocellulose membrane using Bio-Dot Microfiltration apparatus (Bio-Rad) according to Instruction Manual. To detect and evaluate levels of PKC-phosphorylated proteins, Phospho-(Ser) PKC Substrate rabbit polyclonal antibody (Cell Signaling) was used. After visualization of PKC-phosphorylated proteins, the membrane was stripped and re-probed with β-actin antibody for normalization.

TRPV4 [2] = conditions: literature (Alvarez, Circ Res 2006); cited from earlier work
purified PKCα = purified PKCα (Homo sapiens, UniProt P17252); assay: In vitro peptide binding assay (biotinylated d-peptide, streptavidin capture, blot); conditions: biotinylated d-peptide 0 to 5 μg, PKC lipid activator, 1 hour room temperature
Protocol: Biotinylation of the decoy peptide (d-peptide) was performed using the Thermo Scientific EZ-Link Sulfo-NHS-LC-Biotinylation Kit. Briefly, Sulfo-NHS-LC-Biotin was mixed with d-peptide and the reaction mix was incubated at room temperature for 30 minutes. Different concentrations of the biotinylated d-peptide (0 to 5 μg) mixed with either purified eNOS protein or PKCα protein in a reaction mix containing PKC lipid activator were incubated at room temperature for 1 hour. Protein bound to the biotinylated d-peptide was captured using Thermo Scientific streptavidin agarose column and run on a 10% SDS-PAGE gel under reducing condition. The resulting blots were probed with antibodies to eNOS and PKCα protein respectively. Reactive bands were visualized using chemiluminescence on the LI-COR Odyssey image station.

Compound: CCCCCCCCCC(=O)O[C@@H]1[C@@H](C)[C@@]2(O)[C@@H](C=C(CO)C[C@@]3(O)C(=O)C(C)=C[C@@H]23)[C@@H]2C(C)(C)[C@]12OC(=O)CCCCCCCCC [4αPDD, 4α-Phorbol-12,13 didecanoate]
- cytosolic free Ca2+ concentration ([Ca2+]cyt) (TRPV4 [1]): transient increase of [Ca^2+]cyt; also recorded: induced a transient increase
- maximum respiratory capacity (PAEC): reductions
- mitochondrial basal O2 consumption (PAEC): reductions
- spare respiratory capacity (PAEC): reductions
- PKC activity (PKC): increases PKC activity
- lung injury on 4αPDD exposure (TRPV4 [2]): leads to Ca^2+ entry-dependent acute lung injury, disruption of the lung barrier, and alveolar flooding

Compound: HRKKRRQRRITRKKTFKEVA [d-peptide]
- binding to purified PKCα (purified PKCα): binds efficiently; also recorded: able to bind efficiently to purified PKCα
